For 39 compounds, melting point results are on record in patent US8420651B2, “Substituted 1-alkylcinnolin-4(1H)-one derivatives, preparation thereof and therapeutic application of same” (Sanofi, priority 2009, dated 2013).

One may read the melting point as the temperature of the solid-liquid transition.

As to `O=c1c(-c2cccc(C(F)(F)F)c2Cl)nn(CCCCC(F)(F)F)c2cc(Cl)ccc12` [Compound 17, 7 Chloro-3-[2-chloro-3-(trifluoromethyl)phenyl]-1-(5,5,5-trifluoropentyl)-cinnolin-4(1H)-one], the melting point lay in the range of 137 to 138 °C.
`CCS(=O)(=O)CCn1nc(-c2cccc(OC(F)(F)F)c2)c(=O)c2cccc(OC)c21` [Compound 50, 1-[2-(Ethylsulphonyl)ethyl]-8-methoxy-3-[3-(trifluoromethoxy)phenyl]cinnolin-4(1H)-one] returned a melting point of 130 to 132 °C.
Consider `CC[S+]([O-])CCn1nc(-c2cccc(Cl)c2Cl)c(=O)c2ccc(Cl)cc21` (stereo not drawn), for which the melting point fell in the range of 75 to 77 °C.
The value for `O=c1c(-c2cccc(C(F)(F)F)c2)nn(CCCCC(F)(F)F)c2ccccc12` was 80 to 81 °C.
Turning to `CCS(=O)(=O)CCn1nc(-c2cccc(C(F)(F)F)c2F)c(=O)c2cccc(OC)c21` [Compound 31, 1-[2-(Ethylsulphonyl)ethyl]-3-[2-fluoro-3-(trifluoromethyl)phenyl]-8-methoxycinnolin-4(1H)-one], the melting point is 138 to 139 °C.
For the compound `COc1cccc2c(=O)c(-c3cccc(C(F)(F)F)c3F)nn(CCCNS(C)(=O)=O)c12` [Compound 18, N-(3-[3-[2-Fluoro-3-(trifluoromethyl)phenyl]-8-methoxy-4-oxocinnolin-1(4H)-yl]propyl)methanesulphonamide], the melting point was 62 to 64 °C.
The same measure for `COc1cccc2c(=O)c(-c3cccc(F)c3C(F)(F)F)nn(CCCNS(C)(=O)=O)c12` [Compound 20, N-[3-[3-[3-Fluoro-2-(trifluoromethyl)phenyl]-8-methoxy-4-oxocinnolin-1(4H)-yl]propyl]methanesulphonamide]: 66 to 68 °C.
The value for `CCSCCn1nc(-c2cccc(Cl)c2Cl)c(=O)c2ccc(Cl)cc21` was 75 to 77 °C; that for `CCOCCn1nc(-c2cccc(Cl)c2Cl)c(=O)c2cccc(OC)c21` was 134 to 135 °C.
The compound `CCCCCn1nc(-c2cccc(C(F)(F)F)c2)c(=O)c2ccccc21` showed a melting point of 53 to 55 °C.
The same measure for `CCS(=O)(=O)CCn1nc(-c2cccc(Cl)c2Cl)c(=O)c2ccc(Cl)cc21`: 76 to 79 °C.
The value for `CCSCCn1nc(-c2cccc(C(F)(F)F)c2F)c(=O)c2ccc(Cl)cc21` [Compound 41, 7-Chloro-1-[2-(ethylthio)ethyl]-3-[2-fluoro-3-(trifluoromethyl)phenyl]cinnolin-4(1H)-one] was 117 to 119 °C; that for `COc1cccc2c(=O)c(-c3cccc(Cl)c3Cl)nn(CCCNS(=O)(=O)N(C)C)c12` was 62 to 65 °C; that for `CCCCCn1nc(-c2cccc(C(F)(F)F)c2Cl)c(=O)c2cccc(OC)c21` was 90 to 91 °C.
`CCSCCn1nc(-c2cccc(C(F)(F)F)c2F)c(=O)c2cccc(OC)c21` [Compound 29, 1-[2-(Ethylthio)ethyl]-3-[2-fluoro-3-(trifluoromethyl)phenyl]-8-methoxycinnolin-4(1H)-one] gave a melting point of 73 to 75 °C.
The same measure for `COc1cccc2c(=O)c(-c3cccc(OC(F)(F)F)c3)nn(CCCNS(C)(=O)=O)c12` [Compound 35, N-(3-{8-Methoxy-4-oxo-3-[3-(trifluoromethoxy)phenyl]cinnolin-1(4H)-yl}propyl)methanesulphonamide]: 98 to 101 °C; for `CCCCCn1nc(-c2cccc(C(F)(F)F)c2F)c(=O)c2cccc(OC)c21`: 82 to 84 °C.
The value for `CC[S+]([O-])CCn1nc(-c2cccc(Cl)c2Cl)c(=O)c2cccc(OC)c21` (stereo not drawn) was 128 to 130 °C.
The same measure for `COc1ccc(F)cc1-c1nn(CCCC(F)(F)F)c2ccccc2c1=O` [Compound 16, 3-(5-Fluoro-2-methoxyphenyl)-1-(4,4,4-trifluorobutyl)cinnolin-4(1H)-one]: 118 to 121 °C.
For `O=c1c(-c2cccc(C(F)(F)F)c2F)nn(CCCCF)c2ccccc12`, the melting point fell in the range of 91 to 93 °C.
`CSCCCn1nc(-c2cccc(C(F)(F)F)c2F)c(=O)c2ccccc21` [Compound 7, 3-(2-Fluoro-3-(trifluoromethyl)phenyl)-1-[3-(methylthio)propyl]cinnolin-4(1H)-one] showed a melting point of 80 to 83 °C.
The value for `O=c1c(-c2cccc(C(F)(F)F)c2F)nn(CCCCC(F)(F)F)c2ccccc12` [Compound 4, 3-[2-Fluoro-3-(trifluoromethyl)phenyl]-1-(5,5,5-trifluoropentyl)cinnolin-4(1H)-one] was 118 to 120 °C; that for `CS(=O)(=O)NCCCn1nc(-c2cccc(C(F)(F)F)c2F)c(=O)c2ccccc21` [Compound 27, N-{3-[3-[2-Fluoro-3-(trifluoromethyl)phenyl]-4-oxo-4H-cinnolin-1-yl]-propyl}methanesulphonamide] was 149 to 152 °C; that for `CS(=O)(=O)NCCCn1nc(-c2cccc(C(F)(F)F)c2F)c(=O)c2ccc(C(F)(F)F)cc21` [Compound 25, N-{3-[3-[2-Fluoro-3-(trifluoromethyl)phenyl]-4-oxo-7-trifluoromethyl-4H-cinnolin-1-yl]propyl}methanesulphonamide] was 128 to 130 °C.
The value for `CS(=O)(=O)NCCCn1nc(-c2cccc(C(F)(F)F)c2F)c(=O)c2ccc(Cl)cc21` [Compound 38, N-(3-{7-Chloro-3-[2-fluoro-3-(trifluoromethyl)phenyl]-4-oxocinnolin-1(4H)-yl}propyl)methanesulphonamide] was 155 to 157 °C; that for `CC[S+]([O-])CCn1nc(-c2cccc(C(F)(F)F)c2F)c(=O)c2cccc(OC)c21` (stereo not drawn) [Compound 30, 1-[2-(Ethylsulphinyl)ethyl]-3-[2-fluoro-3-(trifluoromethyl)phenyl]-8-methoxycinnolin-4(1H)-one] was 99 to 101 °C; that for `CCSCCn1nc(-c2cccc(OC(F)(F)F)c2)c(=O)c2cccc(OC)c21` [Compound 49, 1-[2-(Ethylthio)ethyl]-8-methoxy-3-[3-(trifluoromethoxy)phenyl]cinnolin-4(1H)-one] was 86 to 89 °C.
The same measure for `CS(=O)(=O)NCCCn1nc(-c2cccc(Cl)c2Cl)c(=O)c2ccc(C(F)(F)F)cc21`: 80 to 83 °C; for `COc1cccc2c(=O)c(-c3cccc(C(F)(F)F)c3F)nn(CCCNC(=O)C(F)(F)F)c12` [Compound 37, 2,2,2-Trifluoro-N-(3-{3-[2-fluoro-3-(trifluoromethyl)phenyl]-8-methoxy-4-oxocinnolin-1(4H)-yl}propyl)acetamide]: 51 to 53 °C.
For the compound `CCCCCn1nc(-c2cccc(OC(F)(F)F)c2)c(=O)c2cccc(OC)c21`, the melting point lay in the range of 50 to 52 °C.
On to `CCCCCn1nc(-c2cccc(C(F)(F)F)c2F)c(=O)c2ccccc21`, for which the melting point was 78 to 80 °C.
With `COc1cccc2c(=O)c(-c3cccc(C(F)(F)F)c3F)nn(CCCS(C)(=O)=O)c12` [Compound 24, 3-[2-Fluoro-3-(trifluoromethyl)phenyl]-1-(3-(methanesulphonyl)propyl)-8-methoxy-1H-cinnolin-4-one], the melting point was 138 to 139 °C.
The value for `O=c1c(-c2cccc(C(F)(F)F)c2F)nn(CCCC(F)(F)F)c2ccccc12` [Compound 6, 3-[2-Fluoro-3-(trifluoromethyl)phenyl]-1-(4,4,4-trifluorobutyl)cinnolin-4(1H)-one] was 96 to 99 °C; that for `COc1cccc2c(=O)c(-c3cccc(C(F)(F)F)c3F)nn(CCCNS(=O)(=O)C(F)(F)F)c12` [Compound 36, 1,1,1-Trifluoro-N-(3-{3-[2-fluoro-3-(trifluoromethyl)phenyl]-8-methoxy-4-oxocinnolin-1(4H)-yl}propyl)methanesulphonamide] was 127 to 130 °C.
The same measure for `CCSCCn1nc(-c2cccc(OC(F)(F)F)c2)c(=O)c2ccc(Cl)cc21` [Compound 46, 7-Chloro-1-[2-(ethylthio)ethyl]-3-[3-(trifluoromethoxy)phenyl]cinnolin-4(1H)-one]: 66 to 68 °C.
The value for `COc1cccc2c(=O)c(-c3cccc(C(F)(F)F)c3F)nn(CCNS(C)(=O)=O)c12` [Compound 55, N-(2-{3-[2-Fluoro-3-(trifluoromethyl)phenyl]-8-methoxy-4-oxocinnolin-1(4H)-yl}ethyl)methanesulphonamide] was 145 to 146 °C; that for `COc1cccc2c(=O)c(-c3cccc(Cl)c3Cl)nn(CCCNS(C)(=O)=O)c12` was 66 to 68 °C.
With `COc1cccc2c(=O)c(-c3cccc(C(F)(F)F)c3Cl)nn(CCCNS(C)(=O)=O)c12` [Compound 19, N-[3-[3-[2-Chloro-3-(trifluoromethyl)phenyl]-8-methoxy-4-oxocinnolin-1(4H)-yl]propyl]methanesulphonamide], the melting point fell in the range of 95 to 98 °C.
The same measure for `COc1cccc2c(=O)c(-c3cccc(Cl)c3Cl)nn(CCCN(C)S(C)(=O)=O)c12`: 179 to 181 °C.
